For test [1], the system named is AEA cellular uptake, U937 cells. In words: [3H]-AEA cellular uptake inhibition in U937 cells. The class given is cell-based. The following applies: Homo sapiens, U-937, U937 cells. How it is done: [^3H]-AEA Cellular Uptake
Screening for AEA cellular uptake inhibition was performed in a semi-automated procedure: Pipetting and washing steps were performed by a Biomek3000 laboratory workstation. First, required amounts of U937 cells were centrifuged at 100×g for 5 min and resuspended in RPMI (37° C.) to a final concentration of 2×10^6 cells/mL. Then, 250 μL of cell suspension (0.5×10^6 cells per sample) were transferred into AquaSil™ silanized glass vials (Chromacol 1.1-MTV) in 96-well format. After addition of 5 μL vehicle (DMSO) or compounds the cells were incubated at 37° C. for 15 min. As positive controls OMDM-2 and UCM707 were used at 10 μM in each run. The ETI-T compounds were measured at up to 7 concentrations in triplicates from 100 pM-100 μM. After pre-incubation, a mixture of 0.5 nM[ethanolamine-1-^3H]-AEA, (60 Ci/mmol) and 99.5 nM of cold AEA (final 100 nM) was added and samples were incubated at 37° C. for another 15 min. The reaction was stopped by rapid filtration over UniFilter-96 GF/C filters (PerkinElmer) pre-soaked with PBS 0.25% BSA. Cells were washed three times with 100 μL ice-cold PBS buffer containing 1% fatty acid free BSA. After drying, 45 μL MicroScint 20 scintillation cocktail (PerkinElmer, Waltham, Mass., US) was added to the wells and the plate was sealed. Radioactivity was measured by liquid scintillation counting on a PerkinElmer Wallac Trilux MicroBeta 1450 during 2 min. Non-specific binding of [^3H]AEA (100 nM) to the glass vials was never higher than 10%. IC50 values were calculated by GraphPad® by non-linear regression using the built-in log(inhibitor) vs. response-variable slope (four parameters) function.
(§1) Statistical analysis and IC50 values were determined using GraphPad® Prism 5.0 (GraphPad® Software, San Diego, Calif., US). Inhibition curves were obtained by non-linear regression using the built-in log(inhibitor) vs. response-variable slope (four parameters) function. Results were calculated as % of vehicle control of the corresponding fraction (cells, aqueous phase) if not mentioned else. In vivo results are shown in absolute values and were analyzed by a one-way ANOVA following a Tukey's multiple comparison test or student's t-test. If not indicated else the results were compared vs. vehicle (CTRL). *** P<0.001, ** P<0.01, * P<0.05, ns=not significant P>0.05.

A further test concerns the target FAAH (Homo sapiens (Human), UniProt O00519). As to the kind of experiment: FAAH activity: hydrolysis of [3H]-AEA in U937 cell homogenates. The class given is biochemical. The following applies: U937 cell homogenate, read-out: FAAH inhibition IC50. As to the method: Hydrolysis of [^3H]-AEA by FAAH was determined as previously described in cell homogenates of U937 cells (0.18 mg protein) (Omeir et al., 1999, Biochem Biophys Res Commun, 264, 316-20; Mor et al., 2004, J Med Chem, 47, 4998-5008). Protein amounts of cell homogenates corresponded to 0.5×10^6 cells (U937), to assure best possible comparability of IC50 values as used for the AEA cellular uptake assays. URB597 was used as positive control. Protein quantification was performed using a BCA assay (Thermo Scientific). Enzyme activity was assessed by addition of vehicle or compounds in 10 μL DMSO to 490 μL homogenate in 10 mM Tris HCl, 1 mM EDTA, 0.1% (w/v) BSA fatty acid free, pH=8 and incubation for 15 min at 37° C. After, a mixture of AEA plus [ethanolamine-1-^3H]-AEA (0.5 nM) at final 100 nM was added to the homogenates and incubated for 15 min at 37° C. The reaction was stopped by addition of 1 mL ice-cold CHCl3:MeOH (1:1) followed by vigorous vortexing. Phase separation was achieved by centrifugation at 10′000×g at 4° C. for 10 min. Radioactivity of the separated aqueous phase (upper phase) containing [^3H-ethanolamine] or [^3H-glycerol] was measured by liquid scintillation counting on a Tri-Carb 2100 TR liquid scintillation analyzer after addition of 3.5 mL Ultima Gold scintillation cocktail (PerkinElmer Life Sciences). Results are expressed as hydrolysis of tritium substrate in percent of vehicle treated control. IC50 values were calculated by GraphPad®. Data are reported as means of n=3 independent experiments performed in triplicates.
as §1

In a further test the target is hCB1 receptor (Homo sapiens (Human), UniProt P21554). In words: Radioligand CB receptor binding, [3H]-CP55,940 displacement on CHO-K1 hCB1 membranes. The following applies: for CB1 receptor binding (%) at 10 µM: Table 4. How it is done: Stably transfected CHO-K1 cells expressing hCB1 or hCB2 receptors (Gertsch et al., 2008, Proc Natl Acad Sci 105, 9099-104) were cultured in T150 cm^2 flasks up to 90% confluence. The medium was removed and cells were washed twice with PBS, 37° C. 10 mL of PBS was added and the cells were scraped and transferred into a falcon tube following homogenization by a Polytron PT1300D for 5 min at 30 krpm. Then, the homogenate was centrifuged (1400×g, 5 min) to remove debris. The supernatant was subjected to ultracentrifugation (64000×g, 45 min, 4° C.) to separate cytosolic from the membrane fraction. The supernatant was discharged and the pellet resuspended in PBS by sonication. Protein quantity was determined by BCA assay (Thermo Scientific) and aliquots of 500 μL were stored at −80° C. until use.
Radioligand CB Receptor Binding
Binding properties of ETI-T compounds to hCB1 or hCB2 receptors were performed as previously reported in a [^3H]-CP55,940 displacement assay (Gertsch et al., 2008, Proc Natl Acad Sci 105, 9099-104). WIN 55,212-2 was used as positive control. In brief, 20 μg protein of CHO-K1 hCB1 or hCB2 membrane preparations were thawed on ice and resuspended in a final volume of 500 μL binding buffer (50 mM Tris-HCl, 2.5 mM EDTA, 5 mM MgCl2, 0.5% fatty acid free BSA, pH 7.4) in silanized glass vials. [^3H]-CP55,940 (168 Ci/mmol) (PerkinElmer, Waltham, Mass., US) was added to a final concentration of 0.5 nM followed by the addition of competitors or vehicle in 5 μL DMSO. Membrane binding was equilibrated for 2 h at room temperature (25° C.). Samples were filter through a 0.1% polyethylenimine pre-soaked UniFilter®-96 GF/B plate (PerkinElmer) and washed twelve times with 167 μL ice-cold assay-buffer. The plate was dried, bottom sealed and 45 μL MicroScint 20 scintillation cocktail (PerkinElmer) were added before measured on a PerkinElmer 1450 Microbeta TRILUX liquid scintillation counter. Unspecific binding was determined by WIN 55,212-2, 10 μM and subtracted from all values. […].

Where [2] appears, read: Table 1, 100 nM AEA, read-out: AEA uptake inhibition IC50.
The mark [3] stands for this setting: Table 4, read-out: AEA uptake IC50.

Where two headings read alike, the source gives them in different places.

Chain of FAAH (O00519 whole entry): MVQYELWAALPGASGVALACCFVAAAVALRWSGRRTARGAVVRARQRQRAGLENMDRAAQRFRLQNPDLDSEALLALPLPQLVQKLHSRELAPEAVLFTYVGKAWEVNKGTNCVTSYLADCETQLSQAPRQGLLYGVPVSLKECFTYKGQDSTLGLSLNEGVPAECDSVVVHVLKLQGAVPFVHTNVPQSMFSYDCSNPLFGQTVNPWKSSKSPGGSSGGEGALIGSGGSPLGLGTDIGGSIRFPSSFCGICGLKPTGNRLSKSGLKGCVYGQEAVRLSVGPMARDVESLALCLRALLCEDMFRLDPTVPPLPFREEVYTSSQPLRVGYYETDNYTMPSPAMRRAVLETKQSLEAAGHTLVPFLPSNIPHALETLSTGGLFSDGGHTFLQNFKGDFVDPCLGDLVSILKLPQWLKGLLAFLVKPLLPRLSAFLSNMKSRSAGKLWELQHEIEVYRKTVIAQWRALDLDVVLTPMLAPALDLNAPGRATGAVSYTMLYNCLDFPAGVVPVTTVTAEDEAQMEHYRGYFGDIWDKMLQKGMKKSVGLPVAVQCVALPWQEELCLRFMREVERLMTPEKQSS
Chain of hCB1 receptor (P21554 whole entry): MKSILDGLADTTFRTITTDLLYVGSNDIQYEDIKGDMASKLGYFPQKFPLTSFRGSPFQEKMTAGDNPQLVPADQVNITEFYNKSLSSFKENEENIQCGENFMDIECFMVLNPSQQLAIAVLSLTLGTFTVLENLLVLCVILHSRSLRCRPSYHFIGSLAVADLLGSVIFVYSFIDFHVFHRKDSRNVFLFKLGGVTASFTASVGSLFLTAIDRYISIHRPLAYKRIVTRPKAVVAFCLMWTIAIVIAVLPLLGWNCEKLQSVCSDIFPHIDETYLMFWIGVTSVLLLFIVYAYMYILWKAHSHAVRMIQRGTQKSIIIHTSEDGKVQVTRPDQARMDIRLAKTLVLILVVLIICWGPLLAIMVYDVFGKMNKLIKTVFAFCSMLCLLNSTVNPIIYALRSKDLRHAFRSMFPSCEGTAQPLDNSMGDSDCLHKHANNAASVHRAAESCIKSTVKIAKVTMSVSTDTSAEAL

`COc1ccc(/C=C2\S/C(=N\c3ccc(OC)cc3)N(c3ccc(OC)cc3)C2=O)cc1` [Compound 5]: the half-inhibitory concentration (IC50) in test [1] (setting [2]) came to 148 nM; in test [1] (setting [3]), 148 nM; at FAAH (Table 4), 20400 nM. The compound also displayed a CB1 receptor binding (%) at 10 µM at hCB1 receptor of 37%.
Turning to `COc1cc(/C=C2\S/C(=N\c3ccccc3)N(c3ccccc3)C2=O)ccc1O` [Compound 6], the IC50 was 225 nM in test [1] (setting [2]), 225 nM in test [1] (setting [3]) and 26900 nM at FAAH (Table 4). Besides, the CB1 receptor binding (%) at 10 µM on hCB1 receptor came out at 64%.
In the case of `O=C1/C(=C/c2cc(Cl)c(O)c(Cl)c2)S/C(=N\c2ccccc2)N1Cc1ccco1` [Compound 23], the IC50 was 990 nM in test [1] (setting [2]), 990 nM in test [1] (setting [3]), 60300 nM on FAAH (Table 2) and 60300 nM on FAAH (Table 4). For the same compound, the “CB1 receptor binding % binding at 10 μM” value at hCB1 receptor (Table 3) was found to be 24%. For the same compound, on hCB1 receptor, the CB1 receptor binding (%) at 10 µM was determined as 24%.

The values are drawn from US10300048B2, “Thiazolidinones as cellular anandamide uptake inhibitors and their use in the treatment of psychiatric or neurological disorders and inflammation, in particular neuroinflammation” (UNIVERSITAT BERN, priority 2014, dated 2019).
